Key:
[1] = oral bioavailability in the rat; settings: in vivo, read-out: absolute oral bioavailabilty
Procedure: The oral bioavailability of a model β-peptide according to the invention, β-HAla-β-HLys-β-HAla-β-HLeu-β-HLys-β-HAla-β-HLeu, TFA salt is determined in the rat using standard procedures. The absolute oral bioavailabilty is found to be about 1%. It is to be expected that greater oral bioavailability may be seeen with other compounds of the invention, having substituents selected to improve this property.

[2] = pharmacokinetics after intravenous administration to rats; settings: in vivo, rat
Procedure: The above compound is also administered intravenously to rats and found to have a relatively long terminal half life in blood of about 10 hours, with a systemic clearance of about 15 ml/min/kg and a volume of distribution of about 2 l/kg. It appears therefore that the relatively low oral bioavailability of the compound is due to low absorption from the gastrointestinal tract.

SMILES: CC(C)C[C@@H](CC(=O)O)NC(=O)C[C@H](C)NC(=O)C[C@H](CCCCN)NC(=O)C[C@H](CC(C)C)NC(=O)C[C@H](C)NC(=O)C[C@H](CCCCN)NC(=O)C[C@H](C)N [β-HAla-β-HLys-β-HAla-β-HLeu-β-HLys-β-HAla-β-HLeu]
- bioavailability [1]: ~1%
- half-life ([2]; blood, read-out: terminal half life in blood (converted)): ~10 h
- clearance ([2]; read-out: systemic clearance): ~15 mL/min/kg
- Vd ([2]; read-out: volume of distribution): ~2 L/kg

Reference: patent US6617425B1, “Peptides” (Novartis AG, priority 1996, dated 2003)
